According to US12630563B2, “Macrocyclic RIP2-kinase inhibitors” (Oncodesign S.A., priority 2020, dated 2026):

molecular target: T1, recombinant hRIPK2 protein (kinase domain aa 1-299-His-tagged) (Homo sapiens, UniProt O43353); assay: RIPK2 AlphaLISA assay (displacement of bead-bound CZC-8004 from hRIPK2); format: binding; settings: recombinant hRIPK2 kinase domain 10 nM, 2 h at 23° C.
T1 construct: kinase domain aa 1-299-His-tagged; purchased Life Technologies PR7829A
Summary of the method: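 His-tagged kinase domain (10 nM, as diluted) was mixed with compound (0.8% DMSO), acceptor beads bearing the probe CZC-8004 and Ni2+ donor beads. After 2 h at 23 °C, AlphaLISA signal was read. Loss of signal reflects displacement of the probe from RIPK2.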

T1 sequence (O43353 1-299): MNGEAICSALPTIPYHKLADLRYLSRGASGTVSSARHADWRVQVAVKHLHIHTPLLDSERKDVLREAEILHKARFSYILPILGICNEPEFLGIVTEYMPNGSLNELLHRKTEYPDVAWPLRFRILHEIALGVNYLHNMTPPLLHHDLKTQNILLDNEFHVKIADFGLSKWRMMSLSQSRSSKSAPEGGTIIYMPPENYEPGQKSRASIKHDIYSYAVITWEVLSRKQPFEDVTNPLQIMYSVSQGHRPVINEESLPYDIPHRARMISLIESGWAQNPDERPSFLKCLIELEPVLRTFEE

| Structure (SMILES) | IC50 |
| --- | --- |
| CO[C@@H]1C[C@H]2COc3ccn4ncc(c4n3)-c3cc(cc(C(=O)N(C)CC4CC4)c3)NCCN2C1=O [Example 61, (12R,14S)-N-(cyclopropylmethyl)-12-methoxy-N-methyl-11-oxo-16-oxa-7,10,20,21,24-pentaazapentacyclo[15.5.2.1^2,6.0^10,^14.0^20,^23]pentacosa-1(23),2,4,6(25),17(24),18,21-heptaene-4-carboxamide] | 100 to 11000 nM |
| CO[C@@H]1C[C@H]2COc3nc4c(cnn4cc3C)-c3cc(CO)cc(c3)NCCN2C1=O [Example 64, (12R,14S)-4-(hydroxymethyl)-12-methoxy-18-methyl-16-oxa-7,10,20,21,24-pentaazapentacyclo[15.5.2.1^2,6.0^1°,^14.0^2°,^23]pentacosa-1(23),2,4,6(25),17(24),18,21-heptaen-11-one] | 10 to 100 nM |
| C#Cc1cc2cc(c1)-c1cnn3ccc(nc13)OC[C@@H]1C[C@@H](OC)C(=O)N1CCN2 [Example 70, (12R,14S)-4-ethynyl-12-methoxy-16-oxa-7,10,20,21,24-pentaazapentacyclo[15.5.2.1^2,6.0^1°,^14.0^2°,^23]pentacosa-1(23),2(25),3,5,17(24),18,21-heptaen-11-one] | < 10 nM |
| C#Cc1cc2cc(c1)-c1cnn3cc(C)c(nc13)OC[C@@H]1C[C@@H](OC)C(=O)N1CCN2 [Example 71] | < 10 nM |
| C#Cc1cc2cc(c1)-c1cnn3ccc(nc13)OC[C@@H]1C[C@@H](OCC)C(=O)N1CCN2 [Example 72, (12R,14S)-12-ethoxy-4-ethynyl-16-oxa-7,10,20,21,24-pentaazapentacyclo[15.5. 2.1^2,6.0^10,^14.0^20,^23]pentacosa-21-heptaen-11-one] | < 10 nM |
| CCOC(=O)N1CCN2C(=O)[C@H](OC)C[C@H]2COc2ccn3ncc(c3n2)-c2cc(F)cc1c2 [Example 73, Ethyl (12R,14S)-4-fluoro-12-methoxy-11-oxo-16-oxa-7,10,20,21,24-pentaazapentacyclo[15.5.2.1^2,6.0^1°,^14.0^2°,^23]pentacosa-1(23),2,4,6(25),17(24),18,21-heptaene-7-carboxylate] | 10 to 100 nM |
| CO[C@@H]1C[C@H]2COc3ccn4ncc(c4n3)-c3cc(F)cc(c3)N(C(C)=O)CCN2C1=O [Example 74, (12R,14S)-7-acetyl-4-fluoro-12-methoxy-16-oxa-7,10,20,21,24-pentaazapentacyclo[15.5.2.1^2,6.0^1°,^14.0^2°,^23]pentacosa-1(23),2,4,6(25),17(24),18,21-heptaen-11-one] | 10 to 100 nM |
| CO[C@@H]1C[C@H]2COc3ccn4ncc(c4n3)-c3cc(F)cc(c3)N(C)CCN2C1=O [Example 75, (12R,14S)-4-fluoro-12-methoxy-7-methyl-16-oxa-7,10,20,21,24-pentaazapentacyclo[15.5.2.1^2,6.0^1°,^14.0^2°,^23]pentacosa-1(23),2(25),3,5,17(24),18,21-heptaen-11-one] | 10 to 100 nM |
| CO[C@@H]1C[C@H]2COc3ccn4ncc(c4n3)-c3cc(cc(-c4ncon4)c3)NCCN2C1=O [Example 76, (12R,14S)-12-methoxy-4-(1,2,4-oxadiazol-3-yl)-16-oxa-7,10,20,21,24-pentaazapentacyclo[15.5.2.1^2,6.0^1°,^14.0^2°,^23]pentacosa-1(23),2(25),3,5,17(24),18,21-heptaen-11-one] | < 10 nM |
| COCCc1cn2ncc3c2nc1OC[C@@H]1C[C@@H](OC)C(=O)N1CCNc1cc(F)cc-3c1 [Example 77, (12R,14S)-4-fluoro-12-methoxy-18-(2-methoxyethyl)-16-oxa-7,10,20,21,24-pentaazapentacyclo[15.5.2.1^2,6.0^1°,^14.0^2°,^23]pentacosa-1(23),2(25),3,5,17(24),18,21-heptaen-11-one] | < 10 nM |
| COCCc1cn2ncc3c2nc1OC[C@@H]1C[C@@H](OC)C(=O)N1CCNc1cc-3cc(-n2cccn2)c1 [Example 78, (12R,14S)-12-methoxy-18-(2-methoxyethyl)-4-(1H-pyrazol-1-yl)-16-oxa-7,10,20,21,24-pentaazapentacyclo[15.5. 2.1^2,6.0^10,^14.0^20,^23]pentacosa-1(23),2(25),3,5,17(24),18, 21-heptaen-11-one] | < 10 nM |
| O=C1[C@H](OC2CC2)C[C@H]2COc3ccn4ncc(c4n3)-c3cc(F)cc(c3)NCCN12 [Example 80, (12R,14S)-12-cyclopropoxy-4-fluoro-16-oxa-7,10,20,21,24-pentaazapentacyclo[15.5.2.1^2,6.0^1°,^14.0^2°,^23]pentacosa-1(23),2(25),3,5,17(24),18,21-heptaen-11-one] | < 10 nM |
| O=C1[C@H](OC2CC2)C[C@H]2COc3ccn4ncc(c4n3)-c3cc(cc(-n4cccn4)c3)NCCN12 [Example 81, (12R,14S)-12-cyclopropoxy-4-(1H-pyrazol-1-yl)-16-oxa-7,10,20,21,24-pentaazapentacyclo[15.5.2. 1^2,6.0^10,^14.0^20,^23]pentacosa-1(23),2(25),3,5,17(24),18,21-heptaen-11-one] | < 10 nM |

Continued, values first:

| IC50 | Structure (SMILES) |
| --- | --- |
| < 10 nM | CCO[C@@H]1C[C@H]2COc3ccn4ncc(c4n3)-c3cc(cc(C(=O)N(C)C)c3)NCCN2C1=O [Example 58, (12R,14S)-12-ethoxy-N,N-dimethyl-11-oxo-16-oxa-7,10,20,21,24-pentaazapentacyclo[15.5.2.1^2,6.0^10,^14.0^20,^23]pentacosa-1(23),2(25),3,5,17(24),18,21-heptaene-4-carboxamide] |
| < 10 nM | CCO[C@@H]1C[C@H]2COc3ccn4ncc(c4n3)-c3cc(cc(C(=O)NC)c3)NCCN2C1=O [Example 59, (12R,14S)-12-ethoxy-N-methyl-11-oxo-16-oxa-7,10,20,21,24-pentaazapentacyclo[15.5.2.1^2,6.0^10,^14.0^20,^23]pentacosa-1(23),2(25),3,5,17(24),18,21-heptaene-4-carboxamide] |
| < 10 nM | CCO[C@@H]1C[C@H]2COc3ccn4ncc(c4n3)-c3cc(cc(C(N)=O)c3)NCCN2C1=O [Example 60, (12R,14S)-12-ethoxy-11-oxo-16-oxa-7,10,20,21,24-pentaazapentacyclo[15.5.2.1^2,6.0^10,^14.0^20,^23]pentacosa-1(23),2(25),3,5,17(24),18,21-heptaene-4-carboxamide] |
| < 10 nM | CCN(C)C(=O)c1cc2cc(c1)-c1cnn3cc(C)c(nc13)OC[C@@H]1C[C@@H](OC)C(=O)N1CCN2 [Example 62, (12R,14S)-N-ethyl-12-methoxy-N,18-dimethyl-11-oxo-16-oxa-7,10,20,21,24-pentaazapentacyclo[15.5.2.1^2,6.0^10,^14.0^20,^23]pentacosa-1(23),2(25),3,5,17(24),18,21-heptaene-4-carboxamide] |
| < 10 nM | CO[C@@H]1C[C@H]2COc3nc4c(cnn4cc3C)-c3cc(cc(C(=O)N(C)OC)c3)NCCN2C1=O [Example 63, (12R,14S)-N,12-dimethoxy-N,18-dimethyl-11-oxo-16-oxa-7,10,20,21,24-pentaazapentacyclo[15.5.2.1^2,6.0^10,^14.0^20,^23]pentacosa-1(23),2,4,6(25),17(24),18,21-heptaene-4-carboxamide] |
| < 10 nM | CO[C@@H]1C[C@H]2COc3nc4c(cnn4cc3-c3cnn(C)c3C)-c3cc(F)cc(c3)NCCN2C1=O [Example 68] |
| < 10 nM | CO[C@@H]1C[C@H]2COc3nc4c(cnn4cc3-c3cn(C)nc3C)-c3cc(F)cc(c3)NCCN2C1=O [Example 69] |
